The values that follow come from US20070184519A1, “Peptides, polypeptides, and proteins of reduced immunogenicity and methods for their production” (priority 2003, published 2007).

The term IC50 denotes the concentration at which inhibition is half-maximal. The low end stands for greater potency, the high end for weaker potency.

Read-outs that look alike come from different tables or passages of the source. Ends that are not written are not given here. Some results are limits rather than exact numbers.

In one assay the target is T1, DRB4*0101 (Homo sapiens, UniProt P01903+P13762, G164S).
T1 construct: expressed in transfected cells; host or cells: transfected fibroblasts L257.6
The assay is described as follows: Class II peptide-binding assay DRB4*0101 (DRw53).

The target of another assay is T2, DRB1*0401 (Homo sapiens, UniProt P01903+P01911, A100K/A169T/F76Y/I96L/K127E/L162R/M171V/N62H/P40V/Q125Y/R42H/S133A/S149N/S66Y/V115G/V209L/W38E).
T2 construct: Epstein-Barr virus (EBV) transformed homozygous cell lines were used as sources of human HLA Class II molecules; endogenous in cells; host or cells: PREISS (EBV-transformed homozygous B cell line)
The assay is described as follows: Class II peptide-binding assay DRB1*0401 (DR4w4).

A further assay addresses T3, DRB1*0301 (Homo sapiens, UniProt P01903+P01911, A100K/A102G/A103R/A169T/F55Y/I96L/K41T/L162R/M171V/P40S/Q125H/Q178H/Q39Y/R42S/S66N/T106N/T262R/W38E/Y61H).
T3 construct: Epstein-Barr virus (EBV) transformed homozygous cell lines were used as sources of human HLA Class II molecules; endogenous in cells; host or cells: MAT (EBV-transformed homozygous B cell line)
The assay is described as follows: Class II peptide-binding assay DRB1*0301 (DR3).

For a further assay, the target named is T4, DRB1*1101 (Homo sapiens, UniProt P01903+P01911, A100R/A169T/A87E/I96F/K41T/L162R/M171V/P40S/Q125H/Q178H/Q39Y/Q99D/R42S/S66Y/T262R/V115G/W38E).
T4 construct: Epstein-Barr virus (EBV) transformed homozygous cell lines were used as sources of human HLA Class II molecules; endogenous in cells; host or cells: SWEIG (EBV-transformed homozygous B cell line)
The assay can be described thus: Class II peptide-binding assay DRB1*1101 (DR5w11).

The target in a further assay is T5, DRB3*0101 (Homo sapiens, UniProt P01903+P79483).
T5 construct: expressed in transfected cells; host or cells: transfected fibroblasts TR81.19
The assay can be described thus: Class II peptide-binding assay DRB3*0101 (DR52a).

Another assay addresses T6, DRB1*0701 (Homo sapiens, UniProt P01903+P01911, A100R/A102G/A103Q/D57E/D86V/E43K/F76Y/K127E/L162R/M171V/P40G/Q125H/Q99D/R33Q/R42Y/R54Q/S133A/S66F/T210M/V115G/Y107V/Y59L/Y89S).
T6 construct: Epstein-Barr virus (EBV) transformed homozygous cell lines were used as sources of human HLA Class II molecules; endogenous in cells; host or cells: PITOUT (EBV-transformed homozygous B cell line)
The assay is described as follows: Class II peptide-binding assay DRB1*0701 (DR7). Particulars: known HLA-DR and DQ restricted epitopes, Table 6.

In another assay the target is T7, DRB5*0101 (Homo sapiens, UniProt P01903+Q30154).
T7 construct: Epstein-Barr virus (EBV) transformed homozygous cell lines were used as sources of human HLA Class II molecules; endogenous in cells; host or cells: GM3107 (EBV-transformed homozygous B cell line)
The assay can be described thus: Class II peptide-binding assay DRB5*0101 (DR2w2a).

Another assay has as its target T8, DRB1*0101 (Homo sapiens, UniProt P01903+P01911, A100R/D57E/F55L/F60I/F76Y/I96L/L162R/M171V/P40L/Q125E/R42F/V115G/Y59C).
T8 construct: Epstein-Barr virus (EBV) transformed homozygous cell lines were used as sources of human HLA Class II molecules; endogenous in cells; host or cells: LG2 (EBV-transformed homozygous B cell line)
The assay can be described thus: Class II peptide-binding assay DRB1*0101 (DR1).

Another assay deals with T9, DRB1*1302 (Homo sapiens, UniProt P01903+P01911, A100E/A169T/K41T/L162R/M171V/P40S/Q125H/Q178H/Q39Y/Q99D/R42S/S66N/T262R/V115G/W38E/Y61H).
T9 construct: Epstein-Barr virus (EBV) transformed homozygous cell lines were used as sources of human HLA Class II molecules; endogenous in cells; host or cells: HO301 / H0301 (EBV-transformed homozygous B cell line)
The assay is described as follows: Class II peptide-binding assay DRB1*1302 (DR6w19).

In the next assay the target is T10, DRB1*0405 (Homo sapiens, UniProt P01903+P01911, A100R/A169T/D86S/F76Y/I96L/K127E/L162R/M171V/N62H/P40V/Q125Y/R42H/S133A/S149N/S66Y/V115G/V209L/W38E).
T10 construct: Epstein-Barr virus (EBV) transformed homozygous cell lines were used as sources of human HLA Class II molecules; endogenous in cells; host or cells: KT3 (EBV-transformed homozygous B cell line)
The assay can be described thus: Class II peptide-binding assay DRB1*0405 (DR4w15).

Another assay has as its target T11, DRB1*0404 (Homo sapiens, UniProt P01903+P01911, A100R/A169T/F76Y/I96L/K127E/L162R/M171V/N62H/P40V/Q125Y/R42H/S133A/S149N/S66Y/V209L/W38E).
T11 construct: Epstein-Barr virus (EBV) transformed homozygous cell lines were used as sources of human HLA Class II molecules; endogenous in cells; host or cells: BIN40 (EBV-transformed homozygous B cell line)
The assay is described as follows: Class II peptide-binding assay DRB1*0404 (DR4w14).

The target in another assay is T12, DRB1*0802 (Homo sapiens, UniProt P01903+P01911, A100R/A103L/A169T/F76Y/H45Y/I96F/K41T/L162R/M171V/P40S/Q125H/Q178H/Q39Y/Q99D/R218S/R42G/S66Y/V115G/W38E).
T12 construct: Epstein-Barr virus (EBV) transformed homozygous cell lines were used as sources of human HLA Class II molecules; endogenous in cells; host or cells: OLL (EBV-transformed homozygous B cell line)
The assay is described as follows: Class II peptide-binding assay DRB1*0802 (DR8w2).

Setting [1] is: known HLA-DR and DQ restricted epitopes, Table 6.
Where [2] appears, read: inhibition of radiolabeled probe binding, — read as no appreciable binding.

T9 sequence (P01903 26-254, other chains not shown): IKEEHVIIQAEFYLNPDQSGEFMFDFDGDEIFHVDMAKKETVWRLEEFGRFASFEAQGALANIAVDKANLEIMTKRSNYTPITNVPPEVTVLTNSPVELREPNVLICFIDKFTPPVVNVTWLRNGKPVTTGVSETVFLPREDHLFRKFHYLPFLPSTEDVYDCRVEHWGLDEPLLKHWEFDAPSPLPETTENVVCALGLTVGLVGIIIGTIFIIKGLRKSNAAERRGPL
T3 sequence (P01903 26-254, other chains not shown): as above
T4 sequence (P01903 26-254, other chains not shown): as above

`CC[C@H](C)[C@H](NC(=O)[C@H](Cc1ccc(O)cc1)NC(=O)[C@@H]1CCCN1C(=O)[C@H](CC(=O)O)NC(=O)[C@H](CCC(=O)O)NC(=O)[C@H](CC(C)C)NC(=O)[C@@H](NC(=O)[C@H](C)N)C(C)C)C(=O)N[C@@H](CC(C)C)C(=O)N[C@@H](CC(C)C)C(=O)N[C@H](C(=O)N[C@@H](CO)C(=O)N[C@@H](CO)C(=O)N[C@@H](CCCCN)C(=O)N[C@H](C(=O)N[C@@H](CO)C(=O)O)C(C)C)C(C)C`: the IC50 at DRB4*0101 was 4210 nM; at DRB1*0401 (setting [1]) it was 182 nM; at DRB1*0301 (setting [1]) it was over 20000 nM; on DRB1*1101 (setting [1]) it was 6670 nM; at DRB3*0101 it was 5000 nM; at DRB1*0701 it was 73 nM. This molecule also returned an IC50 at DRB5*0101 of 2500 nM.
As to `CC(C)C[C@H](NC(=O)[C@H](Cc1ccccc1)NC(=O)[C@H](CC(N)=O)NC(=O)[C@H](CO)NC(=O)[C@H](Cc1ccc(O)cc1)NC(=O)[C@@H](NC(=O)[C@H](CCCNC(=N)N)NC(=O)[C@H](Cc1ccccc1)NC(=O)[C@H](C)NC(=O)[C@H](CCCCN)NC(=O)[C@H](CCCNC(=N)N)NC(=O)[C@H](Cc1ccccc1)NC(=O)[C@@H](NC(=O)[C@@H](N)CC(=O)O)[C@@H](C)O)C(C)C)C(=O)N[C@@H](CCCNC(=N)N)C(=O)O`, the IC50 on DRB1*0401 came to 25 nM; at DRB1*0101, 68 nM; on DRB1*1101, 5.3 nM; at DRB5*0101 it was 80 nM; on DRB1*1302, 123 nM; on DRB1*0405 it was 48 nM.
Consider `CC(C)C[C@H](NC(=O)[C@H](Cc1ccccc1)NC(=O)[C@H](CC(N)=O)NC(=O)[C@H](CO)NC(=O)[C@H](Cc1ccc(O)cc1)NC(=O)[C@@H](NC(=O)[C@H](CCCNC(=N)N)NC(=O)[C@H](Cc1ccccc1)NC(=O)CNC(=O)[C@H](CCCCN)NC(=O)[C@H](CCCNC(=N)N)NC(=O)[C@H](Cc1ccccc1)NC(=O)[C@@H](NC(=O)[C@@H](N)CC(=O)O)[C@@H](C)O)C(C)C)C(=O)N[C@@H](CCCNC(=N)N)C(=O)O`, for which the values for the IC50 on DRB1*1101 and at DRB1*0404 were 10 nM and 151 nM, respectively.
Turning to `CC(C)C[C@H](NC(=O)[C@H](CC(=O)O)NC(=O)[C@H](CC(N)=O)NC(=O)[C@H](CO)NC(=O)[C@H](Cc1ccc(O)cc1)NC(=O)[C@@H](NC(=O)[C@H](CCCNC(=N)N)NC(=O)[C@H](Cc1ccccc1)NC(=O)[C@H](CC(C)C)NC(=O)[C@H](CCCCN)NC(=O)[C@H](CCCNC(=N)N)NC(=O)[C@H](Cc1ccccc1)NC(=O)[C@@H](NC(=O)[C@@H](N)CC(=O)O)[C@@H](C)O)C(C)C)C(=O)N[C@@H](CCCNC(=N)N)C(=O)O`, the half-maximal inhibitory concentration (IC50) was 1390 nM on DRB4*0101; 24 nM on DRB1*0401; 11500 nM at DRB1*0301; 85 nM on DRB1*0101; 3.6 nM on DRB1*1101; 75 nM at DRB1*0802.
For `CC[C@H](C)[C@H](NC(=O)[C@H](CCCNC(=N)N)NC(=O)[C@H](Cc1c[nH]c2ccccc12)NC(=O)[C@@H](NC(=O)[C@H](C)NC(=O)CNC(=O)[C@H](Cc1c[nH]c2ccccc12)NC(=O)[C@H](CO)NC(=O)[C@@H](N)CCC(=O)O)C(C)C)C(=O)N[C@@H](CC(=O)O)C(=O)N[C@H](C(=O)N1CCC[C@H]1C(=O)N[C@@H](CC(=O)O)C(=O)N[C@@H](CCCCN)C(=O)N[C@@H](CC(C)C)C(=O)N[C@H](C(=O)NCC(=O)N1CCC[C@H]1C(=O)N[C@@H](Cc1ccccc1)C(=O)N[C@H](C(=O)O)[C@@H](C)O)[C@@H](C)O)[C@@H](C)O`, the IC50 is 1120 nM at DRB4*0101 (setting [1]); over 20000 nM at DRB1*0401 (setting [1]); 3180 nM on DRB1*0301 (setting [1]); 2500 nM on DRB1*0101 (setting [1]); over 20000 nM at DRB1*0701; 1730 nM at DRB1*0405 (setting [1]).
`CC(C)C[C@H](NC(=O)[C@@H](NC(=O)[C@H](CC(C)C)NC(=O)[C@@H](NC(=O)[C@H](CCCCN)NC(=O)[C@H](Cc1ccc(O)cc1)NC(=O)CN)C(C)C)C(C)C)C(=O)N[C@@H](CC(N)=O)C(=O)N1CCC[C@H]1C(=O)N[C@@H](CO)C(=O)N[C@H](C(=O)N[C@@H](C)C(=O)N[C@@H](C)C(=O)N[C@H](C(=O)O)[C@@H](C)O)C(C)C` yielded an IC50 at DRB3*0101 of over 20000 nM.
Take `CC[C@H](C)[C@H](NC(=O)[C@H](CC(N)=O)NC(=O)[C@@H](N)CCC(N)=O)C(=O)N[C@@H](CC(C)C)C(=O)N[C@@H](CC(C)C)C(=O)N[C@@H](CO)C(=O)N[C@@H](CC(N)=O)C(=O)N[C@@H](C)C(=O)N1CCC[C@H]1C(=O)N[C@@H](CC(C)C)C(=O)NCC(=O)N1CCC[C@H]1C(=O)N[C@@H](CCC(N)=O)C(=O)N[C@@H](Cc1ccccc1)C(=O)N1CCC[C@H]1C(=O)O`: the IC50 is over 20000 nM on DRB3*0101 (setting [1]); 296 nM at DRB1*0701; over 20000 nM on DRB5*0101 (setting [1]); 5.3 nM on DRB1*1302 (setting [1]); 13400 nM at DRB1*0802 (setting [1]); 143 nM at DRB1*0404 (setting [1]).
Take FNNFTVSFWLRVPKVSASHLEQY: the IC50 at DRB4*0101 is 1680 nM; on DRB1*0401 (setting [1]) it was 93 nM; at DRB1*0301 (setting [1]), over 20000 nM; at DRB1*0101 it was 417 nM; at DRB1*1101 (setting [1]) it was 8.3 nM; at DRB3*0101 it was 2820 nM. Moreover, the IC50 at DRB1*0701 worked out at 57 nM; on DRB5*0101, 2860 nM; at DRB1*1302 (setting [1]), 6370 nM; on DRB1*0802 it was 581 nM; on DRB1*0404 (setting [1]) it was 4540 nM.
Regarding LLKDLEEGIQTLMGR, the IC50 at DRB4*0101 (setting [2]) turned out to be 3710 nM. This lies in the single-digit micromolar range.
In turn, LLYCFRKDMDKVETF yielded an IC50 on DRB3*0101 (setting [2]) of 6940 nM.
On to LWQLNGRLEYCLKDR, for which, on DRB3*0101 (IFNb 15-mer peptides, Table 5D), the IC50 is 6780 nM.
Regarding NHLKTVLEEKLEKED [NHLKTVLEEKLEKED], the IC50 stood at 1390 nM at DRB4*0101 (IFNb 15-mer peptides, Table 5D) and 6760 nM on DRB5*0101 (IFNb 15-mer peptides, Table 5D).
In the case of TSLCFSESIPTPSNR, at DRB3*0101 (setting [2]), the IC50 worked out at 22600 nM.
With VLEEKLEKEDFTRGK, the IC50 at DRB4*0101 (IFNb 15-mer peptides, Table 5D) was 19100 nM; at DRB3*0101 (IFNb 15-mer peptides, Table 5D), 1390 nM; on DRB5*0101 (IFNb 15-mer peptides, Table 5D), 4610 nM.
Take YKTIAYDEEARR: the IC50 at DRB4*0101, on DRB3*0101 and at DRB5*0101 was over 20000 nM each time.
